Common to all, as to conditions: in vivo
The subject of data set [1] is Plasma. Nature of the data set: Drug level in Sprague-Dawley rat plasma assessed as compound formation treated with [14C]brivanib alaninate at 100 mg/kg, po administered as single dose via gavage measured after 1 hr by HPLC analysis. It is filed as ADME, organism-based.
Data set [2] relates to Plasma. Nature of the data set: Drug level in cynomolgus monkey plasma assessed as compound formation treated with [14C]brivanib alaninate at 10 mg/kg, po administered as single dose via gavage measured after 1 hr by HPLC analysis. It is filed as ADME, organism-based, Macaca fascicularis.
Data set [3] relates to Plasma. As to the kind of experiment: Drug level in cynomolgus monkey plasma assessed as compound formation treated with [14C]brivanib alaninate at 10 mg/kg, po administered as single dose via gavage measured after 4 hrs by HPLC analysis. The format is ADME, organism-based, Macaca fascicularis.
Data set [4] deals with Plasma. Nature of the data set: Drug level in human plasma assessed as compound formation treated with [14C]brivanib alaninate at 800 mg, po administered as single dose via gavage measured after 1 hr by HPLC analysis. It is filed as ADME, organism-based.
The test system of data set [5] is Cynomolgus monkey. As to the kind of experiment: Drug uptake in cynomolgus monkey plasma treated with [14C]brivanib alaninate assessed as AUC (0 to 12 hrs) of total radio activity at 10 mg/kg, po administered as single oral dose by HPLC analysis. The format is ADME, organism-based, Macaca fascicularis.
In data set [6] the test system is Plasma. As to the kind of experiment: Drug level in human plasma assessed as compound formation treated with [14C]brivanib alaninate at 800 mg, po administered as single dose via gavage measured after 2 hrs by HPLC analysis. The format is ADME, organism-based.
Data set [7] concerns Plasma. As to the kind of experiment: Drug level in cynomolgus monkey plasma assessed as compound formation treated with [14C]brivanib alaninate at 10 mg/kg, po administered as single dose via gavage measured after 12 hrs by HPLC analysis. The format is ADME, organism-based, Macaca fascicularis.
The test system of data set [8] is Plasma. As to the kind of experiment: Drug level in human plasma assessed as compound formation treated with [14C]brivanib alaninate at 800 mg, po administered as single dose via gavage measured after 4 hrs by HPLC analysis. It is filed as ADME, organism-based.
The nature of data set [9]: Drug excretion in cynomolgus monkey feces treated with [14C]brivanib alaninate at 10 mg/kg, po administered as single dose via gavage by HPLC analysis. It is filed as ADME, organism-based, Macaca fascicularis.
Data set [10] relates to Homo sapiens. As to the kind of experiment: Drug uptake in human plasma treated with [14C]brivanib alaninate assessed as AUC (0 to 12 hrs) of total radio activity at 800 mg, po administered as single oral dose by HPLC analysis. It is filed as ADME, organism-based.
The test system of data set [11] is Plasma. As to the kind of experiment: Drug level in cynomolgus monkey plasma assessed as compound formation treated with [14C]brivanib alaninate at 10 mg/kg, po administered as single dose via gavage measured after 2 hrs by HPLC analysis. It is filed as ADME, organism-based, Macaca fascicularis.
A short description of data set [12]: Drug excretion in bile duct-cannulated cynomolgus monkey bile treated with [14C]brivanib alaninate at 10 mg/kg, po administered as single dose via gavage by HPLC analysis. It is filed as ADME, organism-based, Macaca fascicularis.
A short description of data set [13]: Drug excretion in bile duct-cannulated rat bile treated with [14C]brivanib alaninate at 100 mg/kg, po administered as single dose via gavage by HPLC analysis. The format is ADME, organism-based.
A short description of data set [14]: Drug level in Sprague-Dawley rat urine treated with [14C]brivanib alaninate at 100 mg/kg, po administered as single dose via gavage by mass spectrometry. The format is ADME, organism-based.
Data set [15] can be described thus: Drug excretion in human feces treated with [14C]brivanib alaninate at 800 mg, po administered as single dose […] by HPLC analysis. The format is ADME, organism-based.
The subject of data set [16] is Plasma. Nature of the data set: Drug level in human plasma assessed as compound formation treated with [14C]brivanib alaninate at 800 mg, po administered as single dose via gavage measured after 8 hrs by HPLC analysis. The format is ADME, organism-based.
The test system of data set [17] is Plasma. As to the kind of experiment: Drug level in Sprague-Dawley rat plasma assessed as compound formation treated with [14C]brivanib alaninate at 100 mg/kg, po administered as single dose via gavage measured after 6 hrs by HPLC analysis. It is filed as ADME, organism-based.
The test system of data set [18] is Cynomolgus monkey. Nature of the data set: AUC (0 to 12 hrs) cynomolgus monkey plasma treated with [14C]brivanib alaninate at 10 mg/kg, po administered as single oral dose by HPLC analysis. It is filed as ADME, organism-based, Macaca fascicularis.
A short description of data set [19]: Drug excretion in cynomolgus monkey urine treated with [14C]brivanib alaninate at 10 mg/kg, po administered as single dose via gavage by HPLC analysis. It is filed as ADME, organism-based, Macaca fascicularis.
Data set [20] has as its system Plasma. As to the kind of experiment: Drug level in Sprague-Dawley rat plasma assessed as compound formation treated with [14C]brivanib alaninate at 100 mg/kg, po administered as single dose via gavage measured after 2 hrs by HPLC analysis. The format is ADME, organism-based.
Data set [21] concerns Plasma. Nature of the data set: Drug level in human plasma assessed as compound formation treated with [14C]brivanib alaninate at 800 mg, po administered as single dose via gavage measured after 12 hrs by HPLC analysis. It is filed as ADME, organism-based.
Data set [22] concerns Rattus norvegicus. Nature of the data set: AUC (0 to 6 hrs) Sprague-Dawley rat plasma treated with [14C]brivanib alaninate at 100 mg/kg, po administered as single oral dose by HPLC analysis. It is filed as ADME, organism-based.
Data set [23] relates to Homo sapiens. Nature of the data set: AUC (0 to 12 hrs) human plasma treated with [14C]brivanib alaninate at 800 mg, po administered as single oral dose by HPLC analysis. It is filed as ADME, organism-based.
A short description of data set [24]: Drug excretion in human urine treated with [14C]brivanib alaninate at 800 mg, po administered as single dose […] by HPLC analysis. It is filed as ADME, organism-based.
The test system of data set [25] is Rattus norvegicus. As to the kind of experiment: Drug uptake in Sprague-Dawley rat plasma treated with [14C]brivanib alaninate assessed as AUC (0 to 6 hrs) of total radio activity at 100 mg/kg, po administered as single oral dose by HPLC analysis. It is filed as ADME, organism-based.
For data set [26], the system named is Plasma. Nature of the data set: Drug level in cynomolgus monkey plasma assessed as compound formation treated with [14C]brivanib alaninate at 10 mg/kg, po administered as single dose via gavage measured after 6 hrs by HPLC analysis. It is filed as ADME, organism-based, Macaca fascicularis.
A short description of data set [27]: Drug excretion in Sprague-Dawley rat feces treated with [14C]brivanib alaninate at 100 mg/kg, po administered as single dose via gavage by HPLC analysis. The format is ADME, organism-based.

In the case of `Cc1c(OC[C@@H](C)OS(=O)(=O)O)cn2ncnc(Oc3ccc4[nH]c(CO)cc4c3F)c12`, the Compound recovery is 5.8% in the data set on Plasma [1]; 3% with Plasma [2]; 3.5% in the data set with Plasma [3]; 0.7% in the data set on Plasma [4]; 2.9% in the data set on Plasma [6]; 3% in the data set with Plasma [7]. In addition, the Compound recovery with Plasma [8] was 3.6%; in data set [9] it was 2.4%; with Plasma [11] it was 1.5%; in [12], 10.3%; in data set [13], 1%; in data set [14], “metabolite_detected”. Moreover, the Compound recovery was 8.3% in data set [15]; 1.7% in the data set with Plasma [16]; 4.3% in the data set on Plasma [17]; 4.9% in data set [19]; 3.1% with Plasma [20]; 4.1% in the data set with Plasma [21]. Also, the Compound recovery in [24] was 3.6%; in the data set with Plasma [26], 7.9%; in data set [27], 4.8%. Besides, the “AUC metabolite/AUC radiolabel” value in the data set with Cynomolgus monkey [5] is 4.7%; in the data set with Homo sapiens [10], 1.8%; in the data set with Rattus norvegicus [25], 3.9%. Further, the AUC in the data set on Cynomolgus monkey [18] was found to be 3272.2 ugequiv/l.hr; in the data set with Rattus norvegicus [22], 5443.1 ugequiv/l.hr; in the data set on Homo sapiens [23], 1202.5 ugequiv/l.hr.
As to `Cc1cc2c(F)c(Oc3ncnn4cc(OCC(=O)O)c(C)c34)ccc2[nH]1`, the Compound recovery was 4.7% in the data set on Plasma [1]; 0.9% in the data set on Plasma [2]; 2.7% in the data set with Plasma [3]; “metabolite_not_detected” in the data set with Plasma [4]; “metabolite_not_detected” with Plasma [6]; 3.3% in the data set with Plasma [7]. Besides, the Compound recovery result in the data set on Plasma [8] is on record as “metabolite_not_detected”; in data set [9], 0.5%; in the data set with Plasma [11], 1.7%; in [12], “metabolite_not_detected”; in data set [13] it was 1.4%; in [14], “metabolite_detected”. Moreover, the Compound recovery result in [15] was “metabolite_not_detected”; in the data set with Plasma [16], “metabolite_not_detected”; in the data set with Plasma [17], 6%; in [19] it was 0.2%; in the data set with Plasma [20], 6.4%; in the data set with Plasma [21], “metabolite_not_detected”. Moreover, the Compound recovery entry is reported as “metabolite_not_detected” in data set [24], 2.6% in the data set on Plasma [26] and 1.8% in data set [27].
